Test results published in PubChem BioAssay (NCI).
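Five compound concentrations were applied to cells in 96-well plates for 48 hours; endpoints were derived by simple linear interpolation of the resulting dose-response curve. GI50 = concentration required for 50% inhibition of growth. TGI: concentration producing complete growth inhibition.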

What was measured:
Assay in all cases: inhibition of tumour cell growth, NCI panel, 48 h
[1] = tested on: MALME-3M melanoma
[2] = tested on: OVCAR-3 ovarian
[3] = tested on: HCC-2998 colon
[4] = tested on: SF-295 CNS
[5] = tested on: NCI-H23 lung
[6] = tested on: HCT-116 colon
[7] = tested on: SNB-19 CNS
[8] = tested on: RPMI-8226 leukemia
[9] = tested on: RXF 393 renal
[10] = tested on: HOP-92 NSCLC
[11] = tested on: HCT-15 colon
[12] = tested on: A549 NSCLC
[13] = tested on: NCI/ADR-RES ovarian
[14] = tested on: SK-MEL-28 melanoma
[15] = tested on: PC-3 prostate
[16] = tested on: NCI-H226 lung
[17] = tested on: MCF7 breast
[18] = tested on: TK-10 renal
[19] = tested on: NCI-H460 lung
[20] = tested on: UACC-62 melanoma
[21] = tested on: IGROV1 ovarian
[22] = tested on: A498 renal
[23] = tested on: 786-0 renal
[24] = tested on: SK-MEL-2 melanoma
[25] = tested on: OVCAR-5 ovarian
[26] = tested on: SF-268 CNS
[27] = tested on: DU-145 prostate
[28] = tested on: SNB-75 CNS
[29] = tested on: BT-549 breast
[30] = tested on: SN12C renal
[31] = tested on: MDA-MB-435
[32] = tested on: OVCAR-4 ovarian
[33] = tested on: COLO 205 colon
[34] = tested on: HL-60(TB) leukemia
[35] = tested on: SR leukemia
[36] = tested on: SF-539 CNS
[37] = tested on: UO-31 renal
[38] = tested on: U251 CNS
[39] = tested on: ACHN renal
[40] = tested on: NCI-H522 lung
[41] = tested on: SK-MEL-5 melanoma
[42] = tested on: UACC-257 melanoma
[43] = tested on: CAKI-1 renal
[44] = tested on: HOP-62 NSCLC
[45] = tested on: SK-OV-3 ovarian
[46] = tested on: HT29 colon
[47] = tested on: KM12 colon
[48] = tested on: MDA-MB-231 breast
[49] = tested on: HS 578T breast
[50] = tested on: T-47D breast
[51] = tested on: K-562 leukemia
[52] = tested on: M14 melanoma
[53] = tested on: SW-620 colon

**Q.** What does the source list for `Fc1ccc([C@@H]2CCNC[C@H]2COc2ccc3c(c2)OCO3)cc1`?
**A.** GI50 [1]: 2.68 µM; TGI [1]: 6.12 µM; GI50 [2]: 10.5 µM; TGI [2]: 22.8 µM; GI50 [3]: 2.1 µM; TGI [3]: 4.39 µM; GI50 [4]: 4.07 µM; TGI [4]: 17.1 µM; GI50 [5]: 15.4 µM; TGI [5]: 32.5 µM; GI50 [6]: 6.07 µM; TGI [6]: 21.8 µM; GI50 [7]: 12 µM; TGI [7]: 25.4 µM; GI50 [8]: 2.4 µM; TGI [8]: 8.9 µM; GI50 [9]: 5.28 µM; TGI [9]: 20.1 µM; GI50 [10]: 1.62 µM; TGI [10]: 12.8 µM; GI50 [11]: 11 µM; TGI [11]: 27 µM; GI50 [12]: 14.6 µM; TGI [12]: 29 µM; GI50 [13]: 14 µM; TGI [13]: 30 µM; GI50 [14]: 5.96 µM; TGI [14]: 19 µM; GI50 [15]: 3.83 µM; TGI [15]: 17.2 µM; GI50 [16]: 13.7 µM; TGI [16]: 29.9 µM; GI50 [17]: 3.23 µM; TGI [17]: 14.6 µM; GI50 [18]: 11.3 µM; TGI [18]: 23.8 µM; GI50 [19]: 5.51 µM; TGI [19]: 18.6 µM; GI50 [20]: 5.52 µM; TGI [20]: 18.8 µM; GI50 [21]: 7.05 µM; TGI [21]: 20.3 µM; GI50 [22]: 5.52 µM; TGI [22]: 19.2 µM; GI50 [23]: 12.3 µM; TGI [23]: 25.7 µM; GI50 [24]: 5.72 µM; TGI [24]: 18.5 µM; GI50 [25]: 14.3 µM; TGI [25]: 28.4 µM; GI50 [26]: 10.8 µM; TGI [26]: 23.5 µM; GI50 [27]: 13.1 µM; TGI [27]: 26.5 µM; GI50 [28]: 1.32 µM; TGI [28]: 7.61 µM; GI50 [29]: 12.2 µM; TGI [29]: 26.1 µM; GI50 [30]: 5.79 µM; TGI [30]: 18.9 µM; GI50 [31]: 2.31 µM; TGI [31]: 7.96 µM; GI50 [32]: 10.6 µM; TGI [32]: 23.1 µM; GI50 [33]: 1.91 µM; TGI [33]: 3.69 µM; GI50 [34]: 4.95 µM; TGI [34]: 19.9 µM; GI50 [35]: 2.02 µM; TGI [35]: 5.34 µM; GI50 [36]: 12.8 µM; TGI [36]: 25.6 µM; GI50 [37]: 5.76 µM; TGI [37]: 19.6 µM; GI50 [38]: 8.18 µM; TGI [38]: 21.1 µM; GI50 [39]: 10.8 µM; TGI [39]: 24 µM; GI50 [40]: 12 µM; TGI [40]: 25.4 µM; GI50 [41]: 4.42 µM; TGI [41]: 17 µM; GI50 [42]: 11.2 µM; TGI [42]: 24.6 µM; GI50 [43]: 12.1 µM; TGI [43]: 25.3 µM; GI50 [44]: 13.3 µM; TGI [44]: 27.4 µM; GI50 [45]: 12.7 µM; TGI [45]: 25.7 µM; GI50 [46]: 3.52 µM; TGI [46]: 13.9 µM; GI50 [47]: 3.86 µM; TGI [47]: 14.1 µM; GI50 [48]: 3.07 µM; TGI [48]: 15 µM; GI50 [49]: 19.8 µM; TGI [49]: 62.3 µM; GI50 [50]: 5.53 µM; TGI [50]: 20.4 µM; GI50 [51]: 2.32 µM; TGI [51]: 6.24 µM; GI50 [52]: 2.93 µM; TGI [52]: 11.1 µM; GI50 [53]: 10.6 µM; TGI [53]: 24.2 µM
